Laboratory results taken from patent US20170362283A1, “NISIN-BASED COMPOUNDS AND USE THEREOF IN THE TREATMENT OF BACTERIAL INFECTIONS” (UNIVERSITEIT UTRECHT HOLDING B.V., priority 2015, published 2017).
Read-outs that look alike come from different tables or passages of the source.

Columns and labels:
M. luteus = format: cell-based; settings: duplicate experiments
Method: (§1) Determining the MIC value is a standard technique well known to the skilled person, in particular the MIC value can be measured using method M07-A9 (CLSI standard, January 2012, Vol. 32, No. 2, “Methods for Dilution Antimicrobial Susceptibility Tests for Bacteria That Grow Aerobically”).
(§2) Different microorganisms (from glycerol stock) were plated out on blood agar and incubated at 37° C. for 24 hours. A colony was selected and 2×5 mL of TSB was inoculated. The samples and a sterile control were cultured for 16-20 hours at 37° C. Comparative compound B is nisin acting as a control. Comparative compound C is vancomycin, also acting as a control. Comparative compounds A, D and E are also control compounds not part of the present invention.
(§3) The overnight cultures were diluted to 0.5×10^6 CFU in TSB. 50 μL of the bacterial solution was added to each well and the plates were sealed with an adhesive membrane and incubated at 37° C. for 16 hours. The next day, the plates were visually inspected for bacterial growth.

VRE 155 = format: cell-based; settings: duplicate experiments
Method: as §1, §2, §3

erythrocytes = assay: Hemolysis assay; settings: human erythrocytes, 1 h, at 32 μg/mL
Method: Human whole blood was centrifuged at 600×g for 15 min and levels of plasma and hematocrit were marked on the tube. Plasma was removed and the erythrocytes washed 3× with PBS (centrifuging at 600×g for 15 mins). After discarding the supernatant, the packed cells were stored on ice. 100 μL of the peptides (128 μg/mL in PBS, 2% DMSO) as well as a control solution comprised of 2% DMSO in PBS were added to the top row of a polypropylene, round-bottom 96 well plate and 50 μL of PBS to the rest of the wells. The peptides and the DMSO control solutions were then diluted serially down the rows. 200 μL of the packed cells were added to PBS (10 mL) and 50 μL of this suspension was added to each well. A column with DI water containing 0.1% Triton X-100 was used as the 100% lysis control, and the column containing the serially-diluted PBS (1.0% DMSO) control served as the 0% lysis reference. The cells were incubated at 37° C. for 1 h. After incubation the plates were centrifuged (800×g, 5 min) and 25 μL of the supernatant was added to 100 μL DI water in a flat-bottom plate (polystyrene). The absorption at 414 nm was recorded to measure the amount of free hemoglobin.

E. coli = settings: duplicate experiments
Method: as §1
as §2, with “Comparative compound C is vancomycin, also acting as a control.” left out
as §3

B. subtilis = settings: duplicate experiments
Method: as §1
as §2, with “Comparative compound C is vancomycin, also acting as a control.” left out
as §3

S. aureus = settings: duplicate experiments
Method: as §1
as §2, with “Comparative compound C is vancomycin, also acting as a control.” left out
as §3

MRSA USA300 = format: cell-based, Staphylococcus aureus; settings: duplicate experiments
Method: as §1, §2, §3

MRSA WKZ2 = format: cell-based, Staphylococcus aureus; settings: duplicate experiments
Method: as §1, §2, §3

Substance: vancomycin
- MIC values M. luteus (M. luteus): 0.03 mg/L
- MIC values VRE 155 (VRE 155): >10 mg/L
- hemolysis (erythrocytes): negligible hemolysis
- MIC values E. coli (E. coli): >10 mg/L
- MIC values B. subtilis (B. subtilis): 0.03 to 0.06 mg/L
- MIC values S. aureus (S. aureus): 0.25 to 0.31 mg/L
- MIC (thirty VRE strains; VRE strain E0013, GBR, vanA): 32 µg/mL
- MIC (thirty VRE strains; VRE strain E0072, NLD, vanA): 8 µg/mL
- MIC (thirty VRE strains; VRE strain E0300, USA, vanA): >128 µg/mL
- MIC (thirty VRE strains; VRE strain E0321, FRA, vanA): >128 µg/mL
- MIC (thirty VRE strains; VRE strain E0333, ISR, vanA): >128 µg/mL
- MIC (thirty VRE strains; VRE strain E0338, ITA, vanA): >128 µg/mL
- MIC (thirty VRE strains; VRE strain E0341, GBR, vanA): 128 µg/mL
- MIC (thirty VRE strains; VRE strain E0506, AUS, vanA): >128 µg/mL
- MIC (thirty VRE strains; VRE strain E0745, NLD, vanA): 64 µg/mL
- MIC (thirty VRE strains; VRE strain E1130, USA, vanA): >128 µg/mL
- MIC (thirty VRE strains; VRE strain E1441, GRC, vanA): 128 µg/mL
- MIC (thirty VRE strains; VRE strain E1679, BRA, vanA): >128 µg/mL
- MIC (thirty VRE strains; VRE strain E1763, BEL, vanA): >128 µg/mL
- MIC (thirty VRE strains; VRE strain E2297, USA, vanA): 128 µg/mL
- MIC (thirty VRE strains; VRE strain E2359, SGP, vanB): <1-1 μg/mL
- MIC (thirty VRE strains; VRE strain E2365, HUN, vanB): <1 µg/mL
- MIC (thirty VRE strains; VRE strain E2373, SRB, vanA): >128 µg/mL
- MIC (thirty VRE strains; VRE strain E6016, LVA, vanA): 128 µg/mL
- MIC (thirty VRE strains; VRE strain E7312, NLD, vanA): 64 µg/mL
- MIC (thirty VRE strains; VRE strain E7314, NLD, vanB): >128 µg/mL
- MIC (thirty VRE strains; VRE strain E7319, NLD, vanA): >128 µg/mL
- MIC (thirty VRE strains; VRE strain E7329, NLD, vanA): <1 µg/mL
- MIC (thirty VRE strains; VRE strain E7401, NLD, vanB): 16 µg/mL
- MIC (thirty VRE strains; VRE strain E7403, NLD, vanB): <1 µg/mL
- MIC (thirty VRE strains; VRE strain E7413, NLD, vanA): >128 µg/mL
- MIC (thirty VRE strains; VRE strain E7424, NLD, vanB): >128 µg/mL
- MIC (thirty VRE strains; VRE strain E7464, NLD, vanB): 2 µg/mL
- MIC (thirty VRE strains; VRE strain E8218, NLD, vanB): 8 µg/mL
- MIC (thirty VRE strains; VRE strain E8235, NLD, vanB): 8 µg/mL
- MIC (thirty VRE strains; VRE strain E8237, NLD, vanA): 128 µg/mL
- MIC50 (thirty VRE strains; thirty VRE strains): MIC50 = 128 μg/mL
- MIC90 (thirty VRE strains; thirty VRE strains): MIC90 = >128 μg/mL
- MIC values MRSA USA300 (MRSA USA300): 0.625 mg/L
- MIC values MRSA WKZ2 (MRSA WKZ2): 0.625 mg/L
